Results from publication PMC13267069 (npj Drug Discovery, 2025).

Biological target: CFTR (Homo sapiens, UniProt P13569, G551D)
Assay: Ussing chamber short-circuit current, FRT cells
Assay type: cell-based

Chain of CFTR (P13569 whole entry G551D): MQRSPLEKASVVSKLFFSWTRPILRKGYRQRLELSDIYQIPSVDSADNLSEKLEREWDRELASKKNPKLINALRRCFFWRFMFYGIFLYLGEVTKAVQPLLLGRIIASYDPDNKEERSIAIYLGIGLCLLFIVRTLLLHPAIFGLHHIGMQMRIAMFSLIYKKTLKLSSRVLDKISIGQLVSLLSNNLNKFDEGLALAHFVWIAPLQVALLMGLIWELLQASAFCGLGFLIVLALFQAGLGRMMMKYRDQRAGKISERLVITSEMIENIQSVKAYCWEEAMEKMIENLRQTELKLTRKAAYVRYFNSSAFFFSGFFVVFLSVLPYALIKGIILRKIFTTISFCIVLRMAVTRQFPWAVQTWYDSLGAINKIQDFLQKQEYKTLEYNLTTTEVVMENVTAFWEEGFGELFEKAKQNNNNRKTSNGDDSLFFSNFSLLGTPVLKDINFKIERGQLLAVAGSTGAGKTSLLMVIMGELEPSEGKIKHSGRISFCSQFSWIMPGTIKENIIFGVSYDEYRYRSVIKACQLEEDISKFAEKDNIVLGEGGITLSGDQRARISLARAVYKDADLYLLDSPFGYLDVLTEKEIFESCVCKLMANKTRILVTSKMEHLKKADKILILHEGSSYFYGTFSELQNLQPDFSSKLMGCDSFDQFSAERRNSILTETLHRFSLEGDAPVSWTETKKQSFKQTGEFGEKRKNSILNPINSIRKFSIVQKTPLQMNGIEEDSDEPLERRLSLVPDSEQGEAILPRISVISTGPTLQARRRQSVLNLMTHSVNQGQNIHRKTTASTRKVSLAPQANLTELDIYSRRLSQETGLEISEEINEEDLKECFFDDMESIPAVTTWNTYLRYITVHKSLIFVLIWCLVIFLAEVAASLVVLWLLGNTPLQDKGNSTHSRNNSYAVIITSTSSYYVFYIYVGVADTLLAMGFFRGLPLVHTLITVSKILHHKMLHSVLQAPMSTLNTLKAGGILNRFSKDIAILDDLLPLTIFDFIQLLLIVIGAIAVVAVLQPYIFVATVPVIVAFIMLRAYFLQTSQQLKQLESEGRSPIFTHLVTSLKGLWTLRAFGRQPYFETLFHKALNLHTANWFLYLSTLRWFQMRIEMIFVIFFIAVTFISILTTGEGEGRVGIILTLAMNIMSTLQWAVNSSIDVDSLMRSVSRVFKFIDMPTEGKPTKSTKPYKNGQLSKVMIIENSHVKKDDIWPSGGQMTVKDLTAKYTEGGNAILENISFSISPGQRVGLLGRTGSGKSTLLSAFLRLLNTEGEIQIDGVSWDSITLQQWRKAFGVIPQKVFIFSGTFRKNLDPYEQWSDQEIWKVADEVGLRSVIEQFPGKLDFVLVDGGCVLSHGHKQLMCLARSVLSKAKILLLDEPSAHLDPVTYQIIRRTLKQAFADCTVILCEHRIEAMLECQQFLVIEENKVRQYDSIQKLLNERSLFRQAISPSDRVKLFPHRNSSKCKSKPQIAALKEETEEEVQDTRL

In the case of `CC(C)(C)c1cc(C(C)(C)C)c(NC(=O)c2c[nH]c3ccccc3c2=O)cc1O` [VX-770], the “Ussing chamber short-circuit current, FRT cells” value is reported as “In terms of efficacy as a single agent, uHTS159 is roughly equivalent to VX-770”.
